From article PMC9738107, “Targeting of the ELR+CXCL/CXCR1/2 Pathway Is a Relevant Strategy for the Treatment of Paediatric Medulloblastomas” (Cells, 2022)

Legend:
Assay type in all cases: cell-based, human
D341Med cells = assay: XTT assay (cell metabolism/cytotoxicity); settings: for IC50: Homo sapiens, D341 Med
Text: (§1) To evaluate the efficacy of this compound in MB cells, we first determined the relative IC50 values for each cell line using XTT assays (Figure 3A–E). The XTT assay is used to measure cellular metabolic activity (overall activity of mitochondrial dehydrogenases) as an indicator of cell viability, proliferation, and cytotoxicity. […] Overall, IC50 values for all cell lines were in the micromolar range, making C29 a very efficient agent to inhibit cell metabolism and viability.
(§2) Figure 3 A new pharmacological inhibitor of CXCR1/2, C29, inhibits the metabolism of MB cells. (A–D). Cytotoxic effect induced by C29 on Daoy (A), ONS-76 (B), HD-MB03 (C), and D341Med (D) cells. Cells were treated with increasing doses of the inhibitor for 24, 48, and 72 h. Cytotoxicity was measured using the XTT assay. Absorbance measurements were performed at […], n = 3. (E) Table with the different IC50 values for all conditions. (F) Cell death after 48 h of treatment with control (DMSO, CT) or C29 1, 2.5 or 5 µM treatment, on MB cells, and normal cells (N), n = 3. Statistics were performed using the one-way method ANOVA. ** p < 0.01, *** p < 0.001. For this figure, Daoy = Da, ONS-76 = O, HD-MB03 = HD, D341 = D3, C8D1A = C8. TEXT PRINTED IN THE PICTURE: (E) C29: IC50 (μM): 5.6 (Cell line: Daoy; 24h); IC50 (μM): 3 (Cell line: Daoy; 48h); IC50 (μM): 0.9 (Cell line: Daoy; 72h); IC50 (μM): 17.9 (Cell line: ONS-76; 24h); IC50 (μM): 6.8 (Cell line: ONS-76; 48h); IC50 (μM): 2.1 (Cell line: ONS-76; 72h); IC50 (μM): 2.6 (Cell line: HD-MB03; 24h); IC50 (μM): 1.8 (Cell line: HD-MB03; 48h); IC50 (μM): 1.3 (Cell line: HD-MB03; 72h); IC50 (μM): 7.5 (Cell line: D341Med; 24h); IC50 (μM): 4.9 (Cell line: D341Med; 48h); IC50 (μM): 4.6 (Cell line: D341Med; 72h)
(§3) centrations of C29 in 96‐well plates for 48h. 50μl/well of XTT solution (Cell Proliferation
(§4) kit II, Sigma‐Aldrich) were added to measure cell metabolism at 490 nm with GloMax‐ […]
(§5) 30 μg of proteins were separated on 10% SDS‐polyacrylamide
(§6) gels and transferred on PVDF membranes in Tris‐Glycine buffer (25 mM Tris, 192 mM
(§7) glycine, pH 8∙3) + 20% ethanol (v:v). Membranes were blocked with 3% BSA, at room tem‐
(§8) perature for 1 h, then immunoblotted overnight with primary antibodies diluted in 3%
(§9) BSA, at 4 °C. The following primary antibodies were used: AKT (CST, #9272S), phospho‐
(§10) ARD1 (homemade polyclonal rabbit antibody). Membranes were incubated with HRP‐
(§11) conjugated secondary antibodies anti‐rabbit IgG 1/5000e (Promega), at room temperature,
(§12) for 1h30. After washing, the Advansta WesternBright Quantum HRP substrate (Diagom‐
(§13) ics, Blagnac, France) was used as detection reagent.

Daoy cells = assay: XTT assay (cell metabolism/cytotoxicity); settings: for IC50: Homo sapiens, Daoy
Text: as §1, §2, §3, §4, §5, §6, §7, §8, §9, §10, §11, §12, §13

HD-MB03 cells = assay: XTT assay (cell metabolism/cytotoxicity); settings: for IC50: Homo sapiens
Text: as §1, §2, §3, §4, §5, §6, §7, §8, §9, §10, §11, §12, §13

ONS-76 cells = assay: XTT assay (cell metabolism/cytotoxicity); settings: for IC50: Homo sapiens
Text: as §1, §2, §3, §4, §5, §6, §7, §8, §9, §10, §11, §12, §13

[1] = test system: HD-MB03 spheroids expressing DsRed on mouse cerebellar slices; assay: Ex vivo cerebellar organotypic model; settings: 5 µM C29 daily for five days, after fourteen days
Text: (§14) To establish ex vivo cultures of cerebellar tissues, mouse cerebellums were surgically harvested and sectioned into 250 μm thick slices using a vibrating blade microtome (RRID:SCR_016495). To comply with the 3-R rule, we used supernumerary mice (aged 12 weeks) that were destined to be sacrificed. A spheroid formed from DsRed-expressing MB cells was then grafted onto each cerebellum slice. These organotypic co-culture models were placed on inserts and maintained as previously described. After daily exposure to C29 or DMSO for 5 consecutive days, tumour growth and invasion within the cerebellum slices were analysed over time using the JuLI™ Stage imaging system and the PHERAstar® FS multiplate reader (λex 580 nm/λem 620 nm–fluorescence signal acquisition with a 15 × 15 matrix scanning mode). […]
(§15) Figure 7 C29 is effective in ex vivo cerebellar organotypic model. […] (B) Spheroid growth was monitored by measuring DsRed fluorescence (PheraStar) over 14 days (C) Statistics were performed using Student t-test. * p < 0.05, n = 5. […] Daily (14 days) images, 30 in total, of spheroid growth in each well (JULISdays) were taken (D) Spheroid growth was monitored by measuring DsRed fluorescence (PheraStar) for 14 days (E) Scale bar = 250 µM. […]

[2] = test system: ONS-76 spheroids expressing DsRed on mouse cerebellar slices; assay: Ex vivo cerebellar organotypic model; settings: 5 µM C29 daily for five days, after fourteen days
Text: as §14, §15

In the case of O=C(Nc1cccc(Cl)c1)Nc1nc2ccc([N+](=O)[O-])cc2s1 [C29, 1-(3-chlorophenyl)-3-(6-nitrobenzo[d]thiazol-2-yl) urea], the “Effect on cell metabolism at low concentrations” value (D341Med cells; D341Med, 72 h, 0.1 to 2.5 µM) is reported as “stimulated metabolism”, the IC50 (D341Med cells; D341Med, 24 h) is reported as 7.5 µM and the IC50 (D341Med cells; D341Med, 48 h) is reported as 4.9 µM. The IC50 (D341Med cells; D341Med, 72 h) was 4.6 µM, the “Selectivity index (SI)” value (D341Med cells; IC50 normal cells (C8D1A) / IC50 D341Med) was 3.94 and the IC50 (Daoy cells; 24 h) was 5.6 µM. For the same compound, the IC50 (Daoy cells; 48 h) was 3 µM, the IC50 (Daoy cells; 72 h) was 0.9 µM and the “Selectivity index (SI)” value (Daoy cells; IC50 normal cells (C8D1A) / IC50 Daoy) was 6.44. It also gave an IC50 (HD-MB03 cells; HD-MB03, 24 h) of 2.6 µM, an IC50 (HD-MB03 cells; HD-MB03, 48 h) of 1.8 µM and an IC50 (HD-MB03 cells; HD-MB03, 72 h) of 1.3 µM. The “Selectivity index (SI)” value (HD-MB03 cells; IC50 normal cells (C8D1A) / IC50 HD-MB03) was 10.7, the IC50 (ONS-76 cells; ONS-76, 24 h) was 17.9 µM and the IC50 (ONS-76 cells; ONS-76, 48 h) was 6.8 µM. For the same compound, the IC50 (ONS-76 cells; ONS-76, 72 h) was 2.1 µM, the “Selectivity index (SI)” value (ONS-76 cells; IC50 normal cells (C8D1A) / IC50 ONS-76) was 2.84 and the “Reduction of tumour expansion” value [1] was 34.4 ± 8.8%. For the same compound, the “Reduction of tumour expansion” value [2] was 28.9 ± 4.5%.
